These results are taken from patent US11641858B2, “Agricultural chemicals” (Redag Crop Protection Ltd, priority 2016, dated 2023).

The structures appear in SMILES notation.

The test system of test [1] is Phytophthora cinnamomi. Put plainly: Amended agar assay (potato dextrose agar), reduction in colony growth. It is filed as cell-based. The settings on record: for inhibition of growth at 20 ppm / control over the fungal pathogens tested (in words): primary screen at 20 ppm; for inhibition of growth at 20 ppm: read-out: % control at 20 ppm; for EC50: descending test concentrations, 5-fold dilutions typically down to 0.032 ppm, read-out: Phytophthora cinnamomi (EC50). Here is the method: (§1) Testing was carried out on potato dextrose agar (PDA) amended with each compound at test concentrations of 20, 4 and 0.8, 0.16 and 0.032 ppm. Amended agar at each test concentration was poured into three replicate 9 cm petri dishes. Each replicate dish was inoculated in the centre with a 5 mm agar plug taken from the leading edge of a culture aged between 2 and 7 days old; the age of the culture was dependant on the growth rate of the pathogen being tested. The test pathogens were Pythium ultimum and Phytophthora cinnamomi. Plates were incubated at 18° C. and the diameter of each colony measured before growth on the fastest growing plate reached the plate edge. This varied between 2 and 7 days depending on the growth rate of test pathogens. The % reduction in colony growth compared to the control was calculated for each test concentration and pathogen combination.
(§2) The results are shown in Table 1 in which * represents an average control of up to 50% at said dosage; ** represents an average control of 50% or greater but less than 80% at said dosage; and *** represents an average control of 80% or greater at said dosage.
(§3) A primary screen was also conducted for a number of other compounds of the invention. The screen was conducted at 20 ppm and the results are provided in Table 2, in which D represents no control detected at this concentration; C represents up to 50% control; B from 50 to 99% control; and A represents a control of greater than 99%.
(§4) Alternatively, or in addition, the same assay was conducted at descending test concentrations with 5-fold dilutions typically down to 0.032 ppm, and an EC50 (the concentration at which 50% control would be achieved) was determined. The results are provided in Table 1 in which G represents an EC50 above 20 ppm, F represents an EC50 of 2-20 ppm and E represents and EC50 less than 2 ppm.

Test [2] deals with Pythium ultimum. The test is described as above. In kind it is cell-based. As to conditions: for inhibition of growth at 20 ppm / EC50: Globisporangium ultimum; for inhibition of growth at 20 ppm / control over the fungal pathogens tested (in words): primary screen at 20 ppm; for inhibition of growth at 20 ppm: read-out: % control at 20 ppm; for EC50: descending test concentrations, 5-fold dilutions typically down to 0.032 ppm, read-out: Pythium ultimum (EC50). On the procedure:
as §1, §2, §3, §4

Where [3] appears, read: Pythium ultimum, dose 0.032 ppm in amended agar.
[4] abbreviates: Pythium ultimum, dose 0.16 ppm in amended agar.
Setting [5] is: Pythium ultimum, dose 0.8 ppm in amended agar.
The mark [6] stands for this setting: Pythium ultimum, dose 4 ppm in amended agar.
[7] abbreviates: Pythium ultimum, dose 20 ppm in amended agar.

For the compound `Cn1nnnc1C(=NOCc1cccc(NC(=O)C(F)(F)Oc2ccccc2)n1)c1ccccc1` [A, reference compound], the “average % control at given dosage” value in test [1] (dose 0.032 ppm in amended agar), in test [1] (dose 0.16 ppm in amended agar), in test [1] (dose 0.8 ppm in amended agar), in test [1] (dose 4 ppm in amended agar), in test [1] (dose 20 ppm in amended agar) and in test [2] (setting [3]) was “*** (an average control of 80% or greater at said dosage)” throughout. Also, the “average % control at given dosage” value in test [2] (setting [4]), in test [2] (setting [5]), in test [2] (setting [6]) and in test [2] (setting [7]) was “*** (an average control of 80% or greater at said dosage)” each time. The inhibition of growth at 20 ppm in test [1] and in test [2] (Pythium ultimum) was more than 99% each time.

With `Cn1nnnc1N(C(=O)OCc1cccc(NC(=O)C(F)(F)Oc2ccccc2)n1)c1ccccc1` [B, reference compound], the “average % control at given dosage” value in test [1] (dose 0.032 ppm in amended agar) was “* (an average control of up to 50% at said dosage)”; in test [1] (dose 0.16 ppm in amended agar), “** (an average control of 50% or greater but less than 80% at said dosage)”; in test [1] (dose 0.8 ppm in amended agar), “** (an average control of 50% or greater but less than 80% at said dosage)”; in test [1] (dose 4 ppm in amended agar), “** (an average control of 50% or greater but less than 80% at said dosage)”; in test [1] (dose 20 ppm in amended agar), “** (an average control of 50% or greater but less than 80% at said dosage)”; in test [2] (setting [3]), “* (an average control of up to 50% at said dosage)”. Moreover, the “average % control at given dosage” value is reported as “** (an average control of 50% or greater but less than 80% at said dosage)” in test [2] (setting [4]), “** (an average control of 50% or greater but less than 80% at said dosage)” in test [2] (setting [5]), “*** (an average control of 80% or greater at said dosage)” in test [2] (setting [6]) and “*** (an average control of 80% or greater at said dosage)” in test [2] (setting [7]).

For the compound `Cn1nnnc1-n1c(OCc2cccc(NC(=O)C(F)(F)Oc3ccccc3)n2)nc2ccccc21` [Example 1, 2,2-Difluoro-N-(6-(((1-(1-methyl-1H-tetrazol-5-yl)-1H-benzo[d]imidazol-2-yl)oxy)methyl)pyridin-2-yl)-2-phenoxyacetamide], the “control over the tested oomycete fungal plant pathogens (in words)” value in test [1] (Table 1 doses 0.032-20 ppm, even at low concentrations) is reported as “excellent control”; in test [2] (Pythium ultimum, Table 1 doses 0.032-20 ppm, even at low concentrations), “excellent control”. Further, the EC50 in test [1] and in test [2] was less than 2 µg/mL each time. For the same compound, the “average % control at given dosage” value in test [1] (dose 0.032 ppm in amended agar), in test [1] (dose 0.16 ppm in amended agar), in test [1] (dose 0.8 ppm in amended agar), in test [1] (dose 4 ppm in amended agar), in test [1] (dose 20 ppm in amended agar) and in test [2] (setting [3]) was “*** (an average control of 80% or greater at said dosage)” throughout. The “average % control at given dosage” value in test [2] (setting [4]), in test [2] (setting [5]), in test [2] (setting [6]) and in test [2] (setting [7]) was “*** (an average control of 80% or greater at said dosage)” throughout. Besides, the “control over the fungal pathogens tested (in words)” value in test [1] and in test [2] (Pythium ultimum) was “excellent control” each time. Moreover, the inhibition of growth at 20 ppm in test [1] and in test [2] (Pythium ultimum) was more than 99% each time.

On to `Cn1nnnc1-n1c(OCc2cccc(NC(=O)OC(C)(C)C)n2)nc2ccccc21` [Example 2], for which, in test [1], the EC50 was less than 2 µg/mL, the “control over the fungal pathogens tested (in words)” value is recorded as “excellent control” and the inhibition of growth at 20 ppm is more than 99%. Also, in test [2] (Pythium ultimum), the inhibition of growth at 20 ppm was more than 99% and the “control over the fungal pathogens tested (in words)” value is given as “excellent control”. In addition, the EC50 in test [2] was less than 2 µg/mL.

Regarding `Cc1cccnc1-n1c(OCc2cccc(NC(=O)C(F)(F)Oc3ccccc3)n2)nc2ccccc21` [Example 3], the EC50 in test [1] and in test [2] was less than 2 µg/mL throughout. Further, the inhibition of growth at 20 ppm in test [1] and in test [2] (Pythium ultimum) was 50 to 99% each time.

Regarding `Cn1nccc1-n1c(OCc2cccc(NC(=O)C(F)(F)Oc3ccccc3)n2)nc2ccccc21` [Example 4], the EC50 in test [1] and in test [2] was less than 2 µg/mL in each case. The inhibition of growth at 20 ppm in test [1] and in test [2] (Pythium ultimum) was 50 to 99% throughout.

Regarding `Cc1noc(-n2c(OCc3cccc(NC(=O)C(F)(F)Oc4ccccc4)n3)nc3ccccc32)c1C` [Example 5, N-(6-(((1-(3,4-Dimethylisoxazol-5-yl)-1H-benzo[d]imidazol-2-yl)oxy)methyl)pyridin-2-yl)-2,2-difluoro-2-phenoxyacetamide], the inhibition of growth at 20 ppm in test [1] was less than 50%; in test [2] (Pythium ultimum) it was 50 to 99%.

For the compound `Cn1nnnc1-n1c(OCc2cccc(NC(=O)C(F)(F)Oc3ccccc3)n2)nc2ccc(F)cc21` [Example 6], in test [1], the EC50 was less than 2 µg/mL, the “control over the fungal pathogens tested (in words)” value is recorded as “excellent control” and the inhibition of growth at 20 ppm is more than 99%. Further, in test [2] (Pythium ultimum), the inhibition of growth at 20 ppm is more than 99% and the “control over the fungal pathogens tested (in words)” value was “excellent control”. Moreover, the EC50 in test [2] is less than 2 µg/mL.

For the compound `O=C(Nc1cccc(COc2nc3ccccc3n2-c2ccccn2)n1)C(F)(F)Oc1ccccc1` [Example 7], the EC50 in test [1] and in test [2] was more than 20 µg/mL throughout.

On to `Cc1cc(-n2c(OCc3cccc(NC(=O)C(F)(F)Oc4ccccc4)n3)nc3ccccc32)sn1` [Example 8], for which, in test [2] (Pythium ultimum), the inhibition of growth at 20 ppm is less than 50%.

Turning to `O=C(Nc1cccc(COc2nc3ccccc3n2-c2ccon2)n1)C(F)(F)Oc1ccccc1` [Example 9], the EC50 in test [1] and in test [2] was more than 20 µg/mL in each case.

For the compound `CC(=O)Nc1cccc(COc2nc3ccccc3n2-c2nnnn2C)n1` [Example 10, N-(6-(((1-(1-Methyl-1H-tetrazol-5-yl)-1H-benzo[d]imidazol-2-yl)oxy)methyl)pyridin-2-yl)acetamide], the inhibition of growth at 20 ppm in test [1] was 50 to 99%; in test [2] (Pythium ultimum), 45 to 55%.

As for `CCOC(=O)Nc1cccc(COc2nc3ccccc3n2-c2nnnn2C)n1` [Example 11, Ethyl (6-(((1-(1-methyl-1H-tetrazol-5-yl)-1H-benzo[d]imidazol-2-yl)oxy)methyl)pyridin-2-yl)carbamate], the EC50 in test [1] and in test [2] was less than 2 µg/mL throughout. The “control over the fungal pathogens tested (in words)” value in test [1] and in test [2] (Pythium ultimum) was “excellent control” throughout. For the same compound, the results for the inhibition of growth at 20 ppm in test [1] and in test [2] (Pythium ultimum) were 50 to 99% and more than 99%, respectively.

For the compound `Cn1nnnc1-n1c(OCc2cccc(NC(=O)OC3CCCC3)n2)nc2ccccc21` [Example 12], the EC50 in test [1] and in test [2] was less than 2 µg/mL each time.
